Activity calls are given as the source filed them. How the calls were made is not given here.
Test system: rodent lifetime carcinogenesis bioassay, tumor incidence TD50
Assay: carcinogenic potency in animals, long-term in vivo studies, CPDB compilation (AID 1745844)

## Oc1ccc2ccccc2c1N=Nc1ccccc1
mouse, strain B6C3F1, females, in feed, site: all sites, lesion: lymphoma, dosed 103 weeks, study length 105 weeks
  TD50: 128 mg/kg/day (inactive)
mouse, strain B6C3F1, females, in feed, site: any site (literature study), lesion: several types, types named in the paper, dosed 103 weeks, study length 105 weeks
  TD50: 391 mg/kg/day
mouse, strain B6C3F1, females, in feed, site: liver, lesion: hepatocellular adenoma + hepatocellular carcinoma + neoplastic nodule, dosed 103 weeks, study length 105 weeks
  TD50: 833 mg/kg/day
mouse, strain B6C3F1, females, in feed, site: lung, lesion: alveolar/bronchiolar adenoma + alveolar/bronchiolar carcinoma, dosed 103 weeks, study length 105 weeks
  TD50: 3030 mg/kg/day
mouse, strain B6C3F1, males, in feed, site: any site (literature study), lesion: several types, types named in the paper, dosed 103 weeks, study length 105 weeks
  TD50: 154 mg/kg/day (inactive)
mouse, strain B6C3F1, males, in feed, site: liver, lesion: hepatocellular adenoma + hepatocellular carcinoma + neoplastic nodule, dosed 103 weeks, study length 105 weeks
  TD50: 587 mg/kg/day
mouse, strain B6C3F1, males, in feed, site: lung, lesion: alveolar/bronchiolar adenoma + alveolar/bronchiolar carcinoma, dosed 103 weeks, study length 105 weeks
  TD50: 1080 mg/kg/day
mouse, strain CBA, females, in feed, site: liver, lesion: hepatoma, dosed 52 weeks, study length 104 weeks
  carcinogen call: negative (inactive)
mouse, strain CBA, males, in feed, site: liver, lesion: hepatoma, dosed 52 weeks, study length 104 weeks
  carcinogen call: negative (inactive)
rat, strain Fischer 344, females, in feed, site: liver, lesion: hepatocellular adenoma + hepatocellular carcinoma + neoplastic nodule, dosed 103 weeks, study length 104 weeks
  TD50: 86.5 mg/kg/day
rat, strain Fischer 344, females, in feed, site: liver, lesion: hepatocellular carcinoma + neoplastic nodule, dosed 103 weeks, study length 104 weeks
  TD50: 86.5 mg/kg/day
rat, strain Fischer 344, females, in feed, site: liver, lesion: neoplastic nodule, dosed 103 weeks, study length 104 weeks
  TD50: 96.6 mg/kg/day
rat, strain Fischer 344, females, in feed, site: subcutaneous tissue, lesion: fibroma, dosed 103 weeks, study length 104 weeks
  TD50: 346 mg/kg/day
rat, strain Fischer 344, males, in feed, site: any site (literature study), lesion: several types, types named in the paper, dosed 103 weeks, study length 104 weeks
  TD50: 106 mg/kg/day
rat, strain Fischer 344, males, in feed, site: liver, lesion: hepatocellular adenoma + hepatocellular carcinoma + neoplastic nodule, dosed 103 weeks, study length 104 weeks
  TD50: 17.9 mg/kg/day
rat, strain Fischer 344, males, in feed, site: liver, lesion: hepatocellular carcinoma + neoplastic nodule, dosed 103 weeks, study length 104 weeks
  TD50: 17.9 mg/kg/day
rat, strain Fischer 344, males, in feed, site: liver, lesion: neoplastic nodule, dosed 103 weeks, study length 104 weeks
  TD50: 17.7 mg/kg/day

## CS(=O)(=O)OCCCNCCCOS(C)(=O)=O
mouse, strain B6C3F1, females, i.p., site: any site (literature study), lesion: several types, types named in the paper, dosed 52 weeks, study length 86 weeks
  TD50: 1.17 mg/kg/day (inactive)
mouse, strain B6C3F1, females, i.p., site: lung, lesion: alveolar/bronchiolar adenoma + alveolar/bronchiolar carcinoma, dosed 52 weeks, study length 86 weeks
  TD50: 6.88 mg/kg/day
mouse, strain B6C3F1, males, i.p., site: all sites, lesion: lymphoma, dosed 52 weeks, study length 78 weeks
  TD50: 37.7 mg/kg/day (inactive)
mouse, strain B6C3F1, males, i.p., site: any site (literature study), lesion: several types, types named in the paper, dosed 52 weeks, study length 78 weeks
  TD50: 2.07 mg/kg/day
rat, strain Sprague-Dawley, females, i.p., site: any site (literature study), lesion: several types, types named in the paper, dosed 36 weeks, study length 80 weeks
  TD50: 0.616 mg/kg/day
rat, strain Sprague-Dawley, females, i.p., site: liver, lesion: hepatocellular adenoma + hepatocellular carcinoma + neoplastic nodule, dosed 36 weeks, study length 80 weeks
  TD50: 5.01 mg/kg/day
rat, strain Sprague-Dawley, females, i.p., site: peritoneum, lesion: fibrosarcoma + sarcoma, NOS, dosed 36 weeks, study length 80 weeks
  TD50: 2.74 mg/kg/day
rat, strain Sprague-Dawley, males, i.p., site: any site (literature study), lesion: several types, types named in the paper, dosed 36 weeks, study length 80 weeks
  TD50: 1.3 mg/kg/day
rat, strain Sprague-Dawley, males, i.p., site: peritoneum, lesion: fibrosarcoma + fibroma + sarcoma, NOS, dosed 36 weeks, study length 80 weeks
  TD50: 0.915 mg/kg/day

## COc1ccc(N)c(OC)c1
mouse, strain B6C3F1, females, in feed, site: any site (literature study), lesion: several types, types named in the paper, dosed 103 weeks, study length 104 weeks
  TD50: 986 mg/kg/day (inactive)
mouse, strain B6C3F1, females, in feed, site: liver, lesion: hepatocellular adenoma + hepatocellular carcinoma + neoplastic nodule, dosed 103 weeks, study length 104 weeks
  TD50: 2790 mg/kg/day
mouse, strain B6C3F1, females, in feed, site: lung, lesion: alveolar/bronchiolar adenoma + alveolar/bronchiolar carcinoma, dosed 103 weeks, study length 104 weeks
  TD50: 50600 mg/kg/day
mouse, strain B6C3F1, males, in feed, site: any site (literature study), lesion: several types, types named in the paper, dosed 103 weeks, study length 104 weeks
  TD50: 1650 mg/kg/day (inactive)
mouse, strain B6C3F1, males, in feed, site: liver, lesion: hepatocellular adenoma + hepatocellular carcinoma + neoplastic nodule, dosed 103 weeks, study length 104 weeks
  TD50: 1390 mg/kg/day
rat, strain Fischer 344, females, in feed, site: any site (literature study), lesion: several types, types named in the paper, dosed 104 weeks, study length 105 weeks
  carcinogen call: negative (inactive)
rat, strain Fischer 344, males, in feed, site: any site (literature study), lesion: several types, types named in the paper, dosed 104 weeks, study length 105 weeks
  carcinogen call: negative (inactive)

## Cc1ccc(O)c(O)c1
rat, strain F344/DuCrj, females, in feed, site: forestomach, lesion: squamous-cell carcinoma, dosed 104 weeks, study length 104 weeks
  TD50: 1500 mg/kg/day
rat, strain F344/DuCrj, females, in feed, site: forestomach, lesion: squamous-cell papilloma, dosed 104 weeks, study length 104 weeks
  TD50: 253 mg/kg/day
rat, strain F344/DuCrj, females, in feed, site: stomach, glandular, lesion: adenocarcinoma, dosed 104 weeks, study length 104 weeks
  TD50: 1090 mg/kg/day
rat, strain F344/DuCrj, females, in feed, site: stomach, glandular, lesion: adenoma, dosed 104 weeks, study length 104 weeks
  carcinogen call: positive
rat, strain F344/DuCrj, females, in feed, site: stomach, glandular, lesion: sarcoma, dosed 104 weeks, study length 104 weeks
  TD50: 6500 mg/kg/day
rat, strain F344/DuCrj, males, in feed, site: forestomach, lesion: squamous-cell carcinoma, dosed 104 weeks, study length 104 weeks
  TD50: 719 mg/kg/day
rat, strain F344/DuCrj, males, in feed, site: forestomach, lesion: squamous-cell papilloma, dosed 104 weeks, study length 104 weeks
  TD50: 468 mg/kg/day
rat, strain F344/DuCrj, males, in feed, site: stomach, glandular, lesion: adenocarcinoma, dosed 104 weeks, study length 104 weeks
  TD50: 656 mg/kg/day
rat, strain F344/DuCrj, males, in feed, site: stomach, glandular, lesion: adenoma, dosed 104 weeks, study length 104 weeks
  carcinogen call: positive
rat, strain F344/DuCrj, males, in feed, site: stomach, glandular, lesion: sarcoma, dosed 104 weeks, study length 104 weeks
  TD50: 3830 mg/kg/day

## O=NN1CCCC[C@H]1c1cccnc1
rat, strain Chester Beatty albino, females, in drinking water, site: esophagus, lesion: benign tumor, dosed 73 weeks, study length 73 weeks
  TD50: 17.7 mg/kg/day
rat, strain Chester Beatty albino, females, in drinking water, site: esophagus, lesion: several types, types named in the paper, dosed 73 weeks, study length 73 weeks
  TD50: 12.9 mg/kg/day
rat, strain Chester Beatty albino, females, in drinking water, site: esophagus, lesion: squamous-cell carcinoma, dosed 73 weeks, study length 73 weeks
  TD50: 413 mg/kg/day
rat, strain Chester Beatty albino, males, in drinking water, site: esophagus, lesion: benign tumor, dosed 73 weeks, study length 73 weeks
  TD50: 28.1 mg/kg/day
rat, strain Chester Beatty albino, males, in drinking water, site: esophagus, lesion: several types, types named in the paper, dosed 73 weeks, study length 73 weeks
  TD50: 11 mg/kg/day
rat, strain Chester Beatty albino, males, in drinking water, site: esophagus, lesion: squamous-cell carcinoma, dosed 73 weeks, study length 73 weeks
  TD50: 86 mg/kg/day

## C=CC=O
mouse, strain Charles River CD1, females, by gavage, site: liver, lesion: hepatocellular adenoma, dosed 78 weeks, study length 78 weeks
  carcinogen call: negative (inactive)
mouse, strain Charles River CD1, females, by gavage, site: lung, lesion: alveolar/bronchiolar adenoma, dosed 78 weeks, study length 78 weeks
  carcinogen call: negative (inactive)
mouse, strain Charles River CD1, females, by gavage, site: lung, lesion: alveolar/bronchiolar carcinoma, dosed 78 weeks, study length 78 weeks
  TD50: 90.3 mg/kg/day (inactive)
mouse, strain Charles River CD1, males, by gavage, site: liver, lesion: hepatocellular adenoma, dosed 78 weeks, study length 78 weeks
  carcinogen call: negative (inactive)
mouse, strain Charles River CD1, males, by gavage, site: liver, lesion: hepatocellular carcinoma, dosed 78 weeks, study length 78 weeks
  carcinogen call: negative (inactive)
mouse, strain Charles River CD1, males, by gavage, site: lung, lesion: alveolar/bronchiolar adenoma, dosed 78 weeks, study length 78 weeks
  TD50: 526 mg/kg/day (inactive)
mouse, strain Charles River CD1, males, by gavage, site: lung, lesion: alveolar/bronchiolar carcinoma, dosed 78 weeks, study length 78 weeks
  TD50: 62.6 mg/kg/day (inactive)
rat, strain Fischer 344, females, in drinking water, site: adrenal gland, lesion: cortical adenoma, dosed 104 weeks, study length 132 weeks
  TD50: 93.9 mg/kg/day
rat, strain Fischer 344, females, in drinking water, site: liver, lesion: hepatocellular carcinoma, dosed 104 weeks, study length 132 weeks
  TD50: 433 mg/kg/day
rat, strain Fischer 344, females, in drinking water, site: liver, lesion: hyperplastic nodule, dosed 104 weeks, study length 132 weeks
  TD50: 388 mg/kg/day
rat, strain Fischer 344, females, in drinking water, site: liver, lesion: several types, types named in the paper, dosed 104 weeks, study length 132 weeks
  TD50: 188 mg/kg/day
rat, strain Fischer 344, males, in drinking water, site: forestomach, lesion: one or several types, types not named, dosed 117 weeks, study length 132 weeks
  TD50: 14.4 mg/kg/day
rat, strain Fischer 344, males, in drinking water, site: liver, lesion: hepatocellular carcinoma, dosed 117 weeks, study length 132 weeks
  TD50: 1320 mg/kg/day
rat, strain Sprague-Dawley, females, by gavage, site: adrenal gland, lesion: pheochromocytoma, dosed 104 weeks, study length 104 weeks
  TD50: 5.53 mg/kg/day
rat, strain Sprague-Dawley, females, by gavage, site: liver, lesion: hepatocellular adenoma, dosed 104 weeks, study length 104 weeks
  TD50: 214 mg/kg/day
rat, strain Sprague-Dawley, males, by gavage, site: adrenal gland, lesion: cortical adenoma, dosed 104 weeks, study length 104 weeks
  TD50: 0.471 mg/kg/day
rat, strain Sprague-Dawley, males, by gavage, site: adrenal gland, lesion: cortical carcinoma, dosed 104 weeks, study length 104 weeks
  TD50: 57.7 mg/kg/day
rat, strain Sprague-Dawley, males, by gavage, site: liver, lesion: hepatocellular adenoma, dosed 104 weeks, study length 104 weeks
  TD50: 24.7 mg/kg/day

## C=C(C)[C@H]1CC=C(C)C(=O)C1
mouse, strain B6C3F1, females, by gavage, site: any site (literature study), lesion: several types, types named in the paper, dosed 103 weeks, study length 105 weeks
  carcinogen call: negative (inactive)
mouse, strain B6C3F1, males, by gavage, site: any site (literature study), lesion: several types, types named in the paper, dosed 103 weeks, study length 105 weeks
  carcinogen call: negative (inactive)
mouse, strain B6C3F1, males, by gavage, site: liver, lesion: hepatocellular adenoma + hepatocellular carcinoma + neoplastic nodule, dosed 103 weeks, study length 105 weeks
  TD50: 63800 mg/kg/day

Reference: PubChem BioAssay AID1745844 (Carcinogenic Potency Database (CPDB), 2022)
